Data set [1] has as its target T1, JNK1 (Homo sapiens, UniProt P45983).
T1 construct: purchased Eurofins Pharma Discovery (KINOMEscan)
Put plainly: KINOMEscan Kd determination, JNK1. The conditions noted are these: duplicate, mean, N.B. = no binding at < 30 μM. The protocol: (§1) Selected compounds were submitted for dissociation constant (Kd) determination using KINOMEscan (Eurofins Pharma Discovery, San Diego, CA, USA), as described previously. […] Primary screening at fixed concentrations of compounds was performed in duplicate.

The target of data set [2] is T2, JNK2 (Homo sapiens, UniProt P45984).
T2 construct: purchased Eurofins Pharma Discovery (KINOMEscan)
Put plainly: KINOMEscan Kd determination, JNK2. The conditions noted are these: duplicate, mean, N.B. = no binding at < 30 μM. The protocol: as §1

In data set [3] the target is T3, JNK3 (Homo sapiens, UniProt P53779).
T3 construct: purchased Eurofins Pharma Discovery (KINOMEscan)
Description: KINOMEscan Kd determination, JNK3. The conditions noted are these: duplicate, mean, N.B. = no binding at < 30 μM. How it is done:
as §1

Data set [4] can be described thus: CellTiter-Glo cytotoxicity in THP-1Blue cells. The data set is classed as cell-based, human. The conditions noted are these: human, THP-1Blue cells; 24-h incubation, up to 50 μM; read-out: THP-1Blue Cell Cytotoxicity IC50. How it is done:
(§2) All cells were cultured at 37 °C in a humidified atmosphere containing 5% CO2. THP1-Blue cells obtained from InvivoGen (San Diego, CA, USA) were cultured in RPMI 1640 medium (Mediatech Inc., Herndon, VA, USA) supplemented with 10% (v/v) fetal bovine serum (FBS), 100 μg/mL streptomycin, 100 U/mL penicillin, 100 μg/mL phleomycin (Zeocin), and 10 μg/mL blasticidin S. Human monocyte-macrophage MonoMac-6 cells (Deutsche Sammlung von Mikroorganismen und Zellkulturen GmbH, Braunschweig, Germany) were grown in RPMI 1640 medium supplemented with 10% (v/v) FBS, 10 μg/mL bovine insulin, 100 μg/mL streptomycin, and 100 U/mL penicillin.
(§3) Cytotoxicity was analyzed with a CellTiter-Glo Luminescent Cell Viability Assay Kit from Promega (Madison, WI, USA), according to the manufacturer’s protocol. Cells were treated with compounds under investigation and incubated for 24 h. After treatment, the cells were equilibrated to room temperature for 30 min, substrate was added, and the samples were analyzed with a Fluoroscan Ascent FL (Thermo Fisher Scientific, Waltham, MA, USA). The IC50 values were calculated by plotting percentage inhibition against the logarithm of inhibitor concentration (at least five points).
(In general: ATP-based viability assays read luminescence as a measure of living cells.)

Data set [5] is described as follows: CellTiter-Glo cytotoxicity in MonoMac-6 cells. The data set is classed as cell-based, human. Conditions: human, MonoMac-6 cells; 24-h incubation, up to 50 μM; read-out: MonoMac-6 Cell Cytotoxicity IC50. The protocol:
as §2, §3

Data set [6] concerns NF-κB/AP-1. Description: LPS-induced NF-κB/AP-1 alkaline phosphatase reporter assay in THP1-Blue cells. The conditions noted are these: Homo sapiens; 30 min pretreatment, 250 ng/mL LPS for 24 h; read-out: THP-1Blue Cell NF-κB/AP-1 IC50. The data set is classed as cell-based. How it is done: as §2
Activation of AP-1/NF-κB was measured using an alkaline phosphatase reporter gene assay in THP1-Blue cells. Human monocytic THP-1 Blue cells are stably transfected with a secreted embryonic alkaline phosphatase gene that is under the control of a promoter inducible by NF-κB/AP-1. THP1-Blue cells (2 × 10^5 cells/well) were pretreated with test compound or DMSO for 30 min, followed by addition of 250 ng/mL lipopolysaccharide (LPS) for 24 h, and alkaline phosphatase activity was measured in cell supernatants using QUANTI-Blue mix (InvivoGen) as absorbance at 655 nm and compared with positive control samples (LPS). For selected compounds, the concentrations of inhibitor that caused 50% inhibition of the NF-κB reporter activity (IC50) were calculated.

In data set [7] the test system is IL-6. Description: LPS-induced IL-6 production in MonoMac-6 cells (ELISA). The format is cell-based. The conditions noted are these: Homo sapiens, MONO-MAC-6; 30 min pretreatment, 250 ng/mL LPS for 24 h; read-out: MonoMac-6 Cell IL-6 IC50. The protocol: as §2
A human IL-6 ELISA kit (BD Biosciences, San Jose, CA, USA) was measure IL-6 production. MonoMac-6 cells were plated in 96-well plates at a density of 2 × 10^5 cells/well in culture medium supplemented with 3% (v/v) endotoxin-free FBS. The cells were pretreated with test compound or DMSO for 30 min, followed by addition of 250 ng/mL LPS for 24 h. IC50 values for IL-6 production were calculated by plotting percentage inhibition against the logarithm of inhibitor concentration (at least five points).
Background: An ELISA detects its analyte on a solid surface through an enzyme-linked reagent.

Data set [8] relates to phospho-c-Jun (Ser63). Put plainly: LPS-induced c-Jun (Ser63) phosphorylation in MonoMac-6 cells (Western blotting). The conditions noted are these: 30 min pretreatment, LPS 250 ng/mL 30 min. The format is cell-based, human. The protocol: MonoMac-6 monocytic cells were pretreated with different concentrations of the compounds under investigation for 30 min and treated with LPS (250 ng/mL) or vehicle for another 30 min. Cells were washed twice with Hanks’ balanced salt solution, and cell lysates were prepared using lysis buffer from the JNK kinase assay kit (Cell Signaling Technology, Danvers, MA). Cell lysates (from 5 × 10^6 cells) were separated on ExpressPlus 4–20% PAGE Gels (GenScript, Piscataway, NJ, USA) using TRIS-MOPS running buffer (GenScript) and transferred to nitrocellulose membranes. The blots were probed with antibodies against c-Jun, phospho-c-Jun (Ser63), and total c-Jun (Cell Signaling Technology, Danvers, MA, USA), followed by horseradish peroxidase-conjugated secondary antibody (Cell Signaling Technology). The blots were developed using SuperSignal West Femto chemiluminescent substrate (Thermo Fisher Scientific) and visualized with a FluorChem FC2 imaging system (Alpha Innotech Corporation, San Leandro, CA, USA). Quantitation of the chemiluminescent signal was performed using AlphaView software (ver. 3.0; Alpha Innotech).

Data set [9] concerns the target JNK1-3. Description: KINOMEscan binding, statements for all three JNK isoforms. Conditions: summary of Table 3. How it is done:
as §1

A short description of data set [10]: Water solubility. The data set is classed as physicochemical.
For data set [11], the system named is JNK1-3. More on the design: method as in PMID 27027242, PMID 11717429, PMID 16759099, PMID 21666839. The conditions noted are these: Figure 1; ref [25],[32],[33],[34]; cited from earlier work.
Data set [12] concerns IL-6. More on the design: method as in PMID 22434859. The conditions noted are these: LPS-induced; ref [35]; read-out: MonoMac-6 Cell IL-6 IC50; cited from earlier work.
The target in data set [13] is T1, JNK1. Set-up: method as in PMID 27027242, PMID 11717429, PMID 16759099, PMID 21666839. The conditions noted are these: Figure 1; ref [25],[32],[33],[34]; cited from earlier work.
For data set [14], the target named is T3, JNK3. Set-up: method as in PMID 27027242, PMID 11717429, PMID 16759099, PMID 21666839. Conditions: Figure 1; ref [25],[32],[33],[34]; cited from earlier work.

The text below walks through data of article PMC8464905, “Novel c-Jun N-Terminal Kinase (JNK) Inhibitors with an 11H-Indeno[1,2-b]quinoxalin-11-one Scaffold” (Molecules, 2021).

Read-outs that look alike come from different tables or passages of the source.

As usually defined, the Kd is the equilibrium constant for the complex coming apart. For orientation: melting point means the temperature, or range, at which the solid turns liquid.

T2 sequence (P45984 whole entry): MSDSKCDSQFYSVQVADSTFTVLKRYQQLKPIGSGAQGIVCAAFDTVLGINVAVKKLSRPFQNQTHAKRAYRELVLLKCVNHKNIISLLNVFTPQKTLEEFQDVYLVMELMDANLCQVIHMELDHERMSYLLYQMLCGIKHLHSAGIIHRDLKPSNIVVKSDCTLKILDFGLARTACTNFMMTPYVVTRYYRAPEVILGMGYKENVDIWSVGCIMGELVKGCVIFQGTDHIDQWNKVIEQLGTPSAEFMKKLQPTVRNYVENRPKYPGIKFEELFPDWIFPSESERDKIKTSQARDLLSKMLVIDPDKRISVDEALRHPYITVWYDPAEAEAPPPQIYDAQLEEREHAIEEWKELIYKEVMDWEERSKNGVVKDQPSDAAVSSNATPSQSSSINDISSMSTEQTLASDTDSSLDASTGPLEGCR
T3 sequence (P53779 whole entry): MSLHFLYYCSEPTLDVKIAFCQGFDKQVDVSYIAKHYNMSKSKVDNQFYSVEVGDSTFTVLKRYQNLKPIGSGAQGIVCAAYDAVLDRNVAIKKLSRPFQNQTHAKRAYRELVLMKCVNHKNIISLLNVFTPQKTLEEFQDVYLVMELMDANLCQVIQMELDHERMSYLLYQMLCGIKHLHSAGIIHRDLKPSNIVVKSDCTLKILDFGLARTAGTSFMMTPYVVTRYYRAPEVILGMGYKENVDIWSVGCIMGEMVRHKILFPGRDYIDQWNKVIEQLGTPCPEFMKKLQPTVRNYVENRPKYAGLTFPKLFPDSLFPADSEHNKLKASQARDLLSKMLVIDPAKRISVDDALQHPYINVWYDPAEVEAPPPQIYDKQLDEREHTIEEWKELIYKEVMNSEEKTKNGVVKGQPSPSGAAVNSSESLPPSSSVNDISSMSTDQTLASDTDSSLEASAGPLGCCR
T1 sequence (P45983 whole entry): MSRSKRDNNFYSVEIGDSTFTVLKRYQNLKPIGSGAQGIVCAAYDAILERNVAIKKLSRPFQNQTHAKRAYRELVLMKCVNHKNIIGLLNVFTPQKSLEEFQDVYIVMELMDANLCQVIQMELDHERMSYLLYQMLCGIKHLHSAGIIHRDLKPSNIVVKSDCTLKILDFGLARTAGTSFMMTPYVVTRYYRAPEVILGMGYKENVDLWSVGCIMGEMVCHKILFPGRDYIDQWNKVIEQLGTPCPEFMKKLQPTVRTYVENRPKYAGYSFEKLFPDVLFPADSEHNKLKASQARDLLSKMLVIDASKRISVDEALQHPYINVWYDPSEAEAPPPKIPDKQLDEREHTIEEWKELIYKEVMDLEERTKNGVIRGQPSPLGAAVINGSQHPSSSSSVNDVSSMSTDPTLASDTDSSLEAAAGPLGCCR

As to `ON=C1c2ccccc2-c2nc3cc(F)c(F)cc3nc21` [Compound 4f, 7,8-Difluoro-11H-indeno[1,2-b]quinoxalin-11-one Oxime], the melting point lay in the range of 250 to 251 °C. The Kd in [1] was found to be 170 ± 40 nM. Besides, in data set [2], the “JNK2 Kd” value was “did not bind” and the Kd was above 30000 nM. Besides, in data set [3], the Kd was 520 ± 300 nM. In [4], the IC50 at 24 h is above 50000 nM. Also, the IC50 at 24 h in data set [5] was above 50000 nM. Also, the IC50 in data set [6] worked out at 1100 ± 400 nM. For the same compound, the IC50 in [7] amounted to 14000 ± 2800 nM. Also, the “Effect on LPS-induced c-Jun (Ser63) phosphorylation” value in data set [8] is “inhibited c-Jun phosphorylation”.

`ON=C1c2ccccc2-c2nc3c(CN4CCOCC4)cccc3nc21` [Compound 4m, 6-(Morpholinomethyl)-11H-indeno[1,2-b]quinoxalin-11-one Oxime] yielded a melting point of 210 to 211 °C. The Kd in data set [1] amounted to 1100 ± 100 nM. Besides, in [2], the Kd stood at 880 ± 100 nM. The Kd in data set [3] was 910 ± 300 nM. Also, the “Binding affinity (Kd) for all three JNK isoforms, in words” value in data set [9] is given as “relatively high binding affinity”. Further, the IC50 at 24 h in data set [4] was above 50000 nM. Further, the IC50 at 24 h in data set [5] was above 50000 nM. Moreover, the IC50 in data set [6] is 100 ± 50 nM. In addition, in data set [7], the IC50 worked out at 800 ± 100 nM. Besides, the “Effect on LPS-induced c-Jun (Ser63) phosphorylation” value in [8] is given as “inhibited c-Jun phosphorylation”. Moreover, the Water solubility result in data set [10] is reported as “high water solubility”.

For the compound SP600125, the IC50 in [11] is 40 to 90 nM.

For `ON=C1c2ccccc2-c2nc3ccccc3nc21` [IQ-1, 11H-indeno[1,2-b]quinoxalin-11-one oxime], in data set [12], the IC50 is 3400 ± 800 nM.

On to `Cc1ccc(-c2ncn(-c3ccc(Nc4nccc(-c5cccc(N6CCOCC6)c5)n4)cc3)n2)cn1` [SR-3306], for which the IC50 is 159 nM in data set [13] and 67 nM in data set [14].
